Measured values reported in ChEMBL document CHEMBL3797142, “The self-assembly of a camptothecin-lysine nanotube” (Bioorg Med Chem Lett, 2016).
In brackets after ≈: the same amount, converted by molar mass. Values belong to the molecule of their own block, whether it stands above or below them.

Assays:
[1] = Drug level in pH 9 borate buffer treated with camptothecin-lysine at 1 mM at 37 degC by RP-HPLC analysis; type: physicochemical; conditions: pH 9, 1000 µM
[2] = Drug level in pH 7.4 PBS treated with camptothecin-lysine at 1 mM at 37 degC after 3 days by RP-HPLC analysis; type: physicochemical; conditions: buffer, pH 7.4, 72 h, 1000 µM
[3] = Drug level in pH 7.4 PBS treated with camptothecin-lysine nanotube at 37 degC after 1 week by RP-HPLC analysis; type: physicochemical; conditions: buffer, pH 7.4, 168 h
A549 [4] = test: Drug uptake in human A549 cells at 10 mM after 8 hrs by flow cytometric method; type: ADME, cell-based; conditions: a549, 8 h, 10000 µM
[5] = Induction of self assembly in pH 7.4 PBS assessed as diameter of nanotube at 1 mM after 72 hrs by transmission electron microscopy; type: physicochemical; conditions: buffer, pH 7.4, 72 h, 1000 µM
[6] = Critical aggregation concentration of the compound in water by Nile Red dye based luminescence spectrometric method; type: ADME; conditions: buffer
[7] = Induction of non specific self aggregation in pH 7.4 PBS at 250 uM; type: physicochemical; conditions: buffer, pH 7.4, 250 µM
[8] = Induction of self assembly in pH 7.4 PBS assessed as beta-sheet interaction within assembly at 20 mM lyophilized for 3 days followed by redissolved in D2O by fourier transform infrared spectroscopic method; type: physicochemical; conditions: buffer, pH 7.4, 72 h, 20000 µM
NCI-H460 = test: Cytotoxicity against human NCI-H460 cells assessed as cell viability after 96 hrs by MTT assay; type: functional, cell-based; conditions: NCI-H460, 96 h
[9] = Solubility of the compound in water; type: physicochemical
[10] = Solubility of the compound in pH 7.4 PBS; type: physicochemical
[11] = Induction of J-type self aggregation in pH 7.4 PBS at 250 uM after 3 days by UV-Vis spectrometry; type: physicochemical; conditions: buffer, pH 7.4, 72 h
A549 [12] = test: Cytotoxicity against human A549 cells assessed as cell viability after 96 hrs by MTT assay; type: functional, cell-based; conditions: A549, 96 h
NCI-H23 = test: Cytotoxicity against human NCI-H23 cells assessed as cell viability after 96 hrs by MTT assay; type: functional, cell-based; conditions: NCI-H23, 96 h
[13] = Induction of self assembly in pH 7.4 PBS assessed as diameter of nanotube at 10 mM after 24 hrs by transmission electron microscopy; type: physicochemical; conditions: buffer, pH 7.4, 24 h, 10000 µM
[14] = Critical aggregation concentration of the compound in pH 7.4 PBS by Nile Red dye based luminescence spectrometric method; type: ADME; conditions: buffer
[15] = Induction of self assembly in pH 7.4 PBS assessed as thickness of nanotube walls at 1 mM after 72 hrs by transmission electron microscopy; type: physicochemical; conditions: buffer, pH 7.4, 72 h, 1000 µM
[16] = Drug metabolism in pH 7.4 PBS assessed as remaining parent compound level at 1 mM at 37 degC after 3 days by RP-HPLC analysis; type: physicochemical; conditions: read-out: Stability
[17] = Induction of self assembly in water at pH 7 assessed as diameter of nanotube at 1 mM after 72 hrs by transmission electron microscopy; type: physicochemical; conditions: buffer, pH 7, 72 h, 1000 µM
[18] = Induction of self assembly in pH 7.4 PBS assessed as zeta potential of nanotube at 1 mM after 1 day; type: physicochemical; conditions: buffer, pH 7.4, 24 h, 1000 µM
[19] = Drug level in pH 7.4 PBS treated with camptothecin-lysine at 0.1 mM at 37 degC after 15 hrs by RP-HPLC analysis; type: physicochemical; conditions: buffer, pH 7.4, 15 h, 100 µM
A549 [20] = test: Drug uptake in human A549 cells at 10 mM after 12 to 24 hrs by flow cytometric method; type: ADME, cell-based; conditions: a549, 10000 µM
[21] = Drug level in pH 6 PBS treated with camptothecin-lysine at 0.1 mM at 37 degC after 15 hrs by RP-HPLC analysis; type: physicochemical; conditions: buffer, pH 6, 15 h, 100 µM

Compound: CC[C@@](O)(C(=O)O)c1cc2n(c(=O)c1CO)Cc1cc3ccccc3nc1-2
Drug metabolism [1]: metabolite_detected
Drug metabolism [2]: metabolite_detected
Drug metabolism [3]: metabolite_detected

Drug uptake (A549 [4]): Active
Activity [5]: 70 nm
CAC [6]: 200 µM
Activity [7]: Active
Activity [8]: Not Active
solubility [9]: 12100 µg/mL (≈ 21 mM)
solubility [10]: 5140 µg/mL (≈ 8.93 mM)
Activity [11]: Active
Activity [13]: < 500 nm
CAC [14]: 160 µM
Activity [15]: 7.5 nm
remaining at 72 h, 1000 µM [16]: 39%
Activity [17]: 40 nm
Activity [18]: 19.7 mV
Compound: CC[C@@]1(OC(=O)CCC(=O)NCCCC[C@H](N)C(N)=O)C(=O)OCc2c1cc1n(c2=O)Cc2cc3ccccc3nc2-1
IC50 (NCI-H460): 430 nM
IC50 (A549 [12]): 1120 nM
IC50 (NCI-H23): 120 nM

Compound: CC[C@@]1(O)C(=O)OCc2c1cc1n(c2=O)Cc2cc3ccccc3nc2-1 [CAMPTOTHECIN]
Drug uptake (A549 [4]): Active
Drug metabolism [19]: metabolite_detected
IC50 (NCI-H460): 190 nM
solubility [9]: 3 µg/mL (≈ 0.00861 mM)
Drug metabolism [2]: metabolite_detected
Drug uptake (A549 [20]): Active
IC50 (A549 [12]): 350 nM
IC50 (NCI-H23): 70 nM
Drug metabolism [21]: metabolite_detected
Drug metabolism [3]: metabolite_detected
